The text below walks through data of paper PMC7504216 (Molecules, 2020).

The test system of one test is BChE. The note with it: cited from earlier work; for BChE inhibition: 25 μg/mL (sphondin 115.7 μM, pimpinellin 101.5 μM), from Heracleum platytaenium.
The target in a further test is T1, recombinant human MAO-A (Homo sapiens, UniProt P21397).
T1 construct: purchased Sigma-Aldrich
T1 sequence (P21397 1-527): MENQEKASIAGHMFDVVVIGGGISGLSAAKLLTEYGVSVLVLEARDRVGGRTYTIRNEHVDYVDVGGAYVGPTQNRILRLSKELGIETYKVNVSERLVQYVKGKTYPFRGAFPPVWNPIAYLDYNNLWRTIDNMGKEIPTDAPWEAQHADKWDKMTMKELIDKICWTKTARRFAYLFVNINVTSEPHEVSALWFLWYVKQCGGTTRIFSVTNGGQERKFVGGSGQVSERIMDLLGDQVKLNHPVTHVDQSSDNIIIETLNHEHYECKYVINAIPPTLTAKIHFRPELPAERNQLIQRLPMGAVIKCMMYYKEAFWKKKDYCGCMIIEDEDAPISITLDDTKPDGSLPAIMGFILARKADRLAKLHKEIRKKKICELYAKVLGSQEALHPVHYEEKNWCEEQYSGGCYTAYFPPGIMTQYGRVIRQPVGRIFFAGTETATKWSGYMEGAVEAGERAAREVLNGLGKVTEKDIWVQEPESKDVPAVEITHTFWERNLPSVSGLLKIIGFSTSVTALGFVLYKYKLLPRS
Briefly: biochemical. The settings on record: for remaining activity at 10 µM: read-out: Residual Activity at 10 µM (%) MAO-A. Format: biochemical.

Test [1] concerns the target T2, recombinant human MAO-B (Homo sapiens, UniProt P27338).
T2 construct: purchased Sigma-Aldrich
T2 sequence (P27338 1-520): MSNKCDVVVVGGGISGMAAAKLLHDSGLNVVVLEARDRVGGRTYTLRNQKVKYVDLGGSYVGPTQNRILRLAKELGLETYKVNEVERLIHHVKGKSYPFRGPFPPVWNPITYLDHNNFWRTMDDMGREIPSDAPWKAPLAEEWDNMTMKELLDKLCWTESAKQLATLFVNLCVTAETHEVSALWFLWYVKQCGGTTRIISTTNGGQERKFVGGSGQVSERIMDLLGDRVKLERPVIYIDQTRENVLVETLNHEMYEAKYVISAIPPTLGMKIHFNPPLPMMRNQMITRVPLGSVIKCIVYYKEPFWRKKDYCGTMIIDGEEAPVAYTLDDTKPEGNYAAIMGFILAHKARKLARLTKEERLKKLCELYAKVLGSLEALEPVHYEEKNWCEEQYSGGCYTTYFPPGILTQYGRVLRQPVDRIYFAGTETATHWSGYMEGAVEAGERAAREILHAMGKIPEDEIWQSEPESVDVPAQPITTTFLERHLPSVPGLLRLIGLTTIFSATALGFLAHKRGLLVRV
Briefly: biochemical. Format: biochemical. The settings on record: for remaining activity at 10 µM: read-out: Residual Activity at 10 µM (%) MAO-B.

The target of test [2] is T3, AChE from Electrophorus electricus (Electrophorus electricus, UniProt O42275).
T3 construct: purchased Sigma-Aldrich
Briefly: AChE inhibition assay (Ellman, ATCI). It is filed as biochemical. The note with it: for remaining activity at 10 µM: read-out: Residual Activity at 10 µM (%) AChE; for Residual Activity at 10 µM (%) AChE: inhibitor 10 µM, mean ± SE, triplicate.

The target of test [3] is T4, BChE from equine serum (Equus caballus, UniProt P81908).
T4 construct: BChE from equine serum; purchased Sigma-Aldrich; host or cells: equine serum
The test can be described thus: BChE inhibition assay (Ellman, BTCI) and kinetics. It is filed as biochemical. The note with it: for remaining activity at 10 µM: read-out: Residual Activity at 10 µM (%) BChE; for Residual Activity at 10 µM (%) BChE: inhibitor 10 µM, mean ± SE, triplicate. (Ellman's reagent forms a yellow product with free thiols.)

In test [4] the target is T4, BChE from equine serum. The test can be described thus: Reversibility of BChE inhibition by dialysis. Format: biochemical.
The target of test [5] is T4, BChE from equine serum. Briefly: Reversibility of BChE inhibition by dilution method. It is filed as biochemical.
The target of test [6] is T2, recombinant human MAO-B. Briefly: Reversibility of MAO-B inhibition by dialysis. Format: biochemical.
A further test concerns MAO-B. Further details: method as in PMID 28634060. The settings on record: cited from earlier work.
The next test concerns AChE. The settings on record: cited from earlier work.
Where [7] appears, read: inhibitor 10 µM, mean ± SE, triplicate.

Like-named read-outs stand apart in the source and are kept apart here.

T4 sequence (P81908 whole entry): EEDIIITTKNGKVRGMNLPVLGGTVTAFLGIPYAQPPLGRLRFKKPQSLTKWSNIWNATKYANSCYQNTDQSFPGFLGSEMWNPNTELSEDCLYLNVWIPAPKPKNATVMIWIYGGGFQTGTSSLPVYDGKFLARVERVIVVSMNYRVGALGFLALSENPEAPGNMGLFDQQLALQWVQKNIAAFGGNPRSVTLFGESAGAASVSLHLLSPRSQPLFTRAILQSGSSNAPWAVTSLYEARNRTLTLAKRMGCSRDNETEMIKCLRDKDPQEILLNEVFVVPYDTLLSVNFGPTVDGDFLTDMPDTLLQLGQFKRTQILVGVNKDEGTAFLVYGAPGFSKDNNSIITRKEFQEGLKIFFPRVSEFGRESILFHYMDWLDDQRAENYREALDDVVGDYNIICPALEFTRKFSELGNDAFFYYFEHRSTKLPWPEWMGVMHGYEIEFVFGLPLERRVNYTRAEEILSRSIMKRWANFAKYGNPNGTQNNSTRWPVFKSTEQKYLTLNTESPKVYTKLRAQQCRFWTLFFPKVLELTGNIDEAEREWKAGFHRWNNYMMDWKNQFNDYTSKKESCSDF
T3 sequence (O42275 24-633): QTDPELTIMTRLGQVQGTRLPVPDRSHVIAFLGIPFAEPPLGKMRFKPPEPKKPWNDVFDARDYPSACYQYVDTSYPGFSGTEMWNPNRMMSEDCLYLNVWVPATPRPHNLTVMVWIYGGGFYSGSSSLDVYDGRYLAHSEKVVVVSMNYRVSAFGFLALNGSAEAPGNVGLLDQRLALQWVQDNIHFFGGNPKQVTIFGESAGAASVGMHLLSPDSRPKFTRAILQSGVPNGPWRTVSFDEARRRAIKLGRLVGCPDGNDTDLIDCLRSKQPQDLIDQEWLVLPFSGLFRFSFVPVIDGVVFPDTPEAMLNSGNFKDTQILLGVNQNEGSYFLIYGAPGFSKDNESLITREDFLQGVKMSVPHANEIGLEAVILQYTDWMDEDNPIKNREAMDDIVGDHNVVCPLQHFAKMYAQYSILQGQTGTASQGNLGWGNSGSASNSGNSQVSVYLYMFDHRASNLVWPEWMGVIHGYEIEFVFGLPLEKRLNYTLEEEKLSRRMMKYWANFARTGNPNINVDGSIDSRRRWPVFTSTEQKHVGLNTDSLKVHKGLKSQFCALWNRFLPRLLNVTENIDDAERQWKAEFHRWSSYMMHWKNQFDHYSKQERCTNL

A word on the IC50: it is the midpoint of a concentration-inhibition curve. For the compound `CC(=O)O[C@@H]1CCC(C)(C)c2ccc3c(c21)C(=O)C(=O)C1=C3OC[C@@H]1C` [(1R,15R)-1-acetoxycryptotanshinone], the IC50 with BChE was 2.4 µM.

One may read the Ki as the equilibrium dissociation constant of an inhibitor or competing ligand from its target. Consider `COc1c(CC=C(C)C)c(O)cc2oc(=O)c3c4ccc(O)cc4oc3c12` [GC, glycyrol], for which, on recombinant human MAO-A, the IC50 is greater than 40 µM and the remaining activity at 10 µM was found to be 70.5 ± 1.61%. At recombinant human MAO-B [1], the IC50 was determined as 29.5 ± 0.67 µM and the remaining activity at 10 µM was found to be 74.2 ± 3.46%. In test [2], 14.8 ± 0.19 µM corresponded to half-maximal inhibition (IC50) and the remaining activity at 10 µM came out at 46.1 ± 4.4%. In addition, at BChE from equine serum [3], inhibition was half-maximal at 7.22 ± 0.37 µM (IC50), the Ki came out at 4.47 µM, the “selectivity index (SI) for BChE with respect to AChE” value was determined as 2.0 and the remaining activity at 10 µM came to 44.6 ± 5.36%. Besides, the “mode of BChE inhibition” value on BChE from equine serum [3] (Lineweaver-Burk plots) is reported as “reversible, noncompetitive inhibitor”. Also, the “Residual BChE activity, undialyzed (AU)” value on BChE from equine serum [4] (2 × IC50 (GC […]; tacrine 0.03 µM), 30 min preincubation) is given as 34.6%. Also, the “Residual BChE activity, dialyzed (AD)” value on BChE from equine serum [4] (2 × IC50 (GC […]; tacrine 0.03 µM), 6 h dialysis) is given as 58.4%. Besides, on BChE from equine serum [4] (dialysis and dilution methods), the “reversibility of BChE inhibition” value was “reversible inhibitor”. Moreover, the “residual BChE activity, preincubated at 50 × IC50 then diluted to 1 × IC50” value on BChE from equine serum [5] (15 min preincubation, after dilution) was determined as 40.1%. Besides, the “residual BChE activity, control at 1 × IC50 (before dilution)” value on BChE from equine serum [5] (GC at 1 × IC50) worked out at 51.1%. Also, on BChE from equine serum [5] (GC at 50 × IC50), the “residual BChE activity at 50 × IC50” value came to 10.3%.

Regarding `CC1(C)[C@@H](O)CC[C@]2(C)[C@H]3C(=O)C=C4[C@@H]5C[C@@](C)(C(=O)O)CC[C@]5(C)CC[C@@]4(C)[C@]3(C)CC[C@@H]12` [Glycyrrhetinic acid, glycyrrhetinic acid], the IC50 on recombinant human MAO-A and at recombinant human MAO-B [1] was greater than 40 µM in each case. Besides, the remaining activity at 10 µM on recombinant human MAO-A (setting [7]) came out at 96.3 ± 2.64%; on recombinant human MAO-B [1] (setting [7]), 84 ± 2.16%; in [2] it was 97.3 ± 1.61%; at BChE from equine serum [3], 95 ± 4.12%.

In the case of `CC1(C)[C@@H](O[C@H]2O[C@H](C(=O)O)[C@@H](O)[C@H](O)[C@H]2O[C@@H]2O[C@H](C(=O)O)[C@@H](O)[C@H](O)[C@H]2O)CC[C@]2(C)[C@H]3C(=O)C=C4[C@@H]5C[C@@](C)(C(=O)O)CC[C@]5(C)CC[C@@]4(C)[C@]3(C)CC[C@@H]12` [Glycyrrhizin, glycyrrhizin], the IC50 at recombinant human MAO-A and on recombinant human MAO-B [1] was greater than 40 µM each time. The remaining activity at 10 µM on recombinant human MAO-A (setting [7]) is 95.8 ± 3.3%; on recombinant human MAO-B [1] (setting [7]), 93.1 ± 4.32%; in [2], 97.7 ± 2.14%; at BChE from equine serum [3] it was 82.3 ± 7.95%.

`O=C(/C=C/c1ccc(O[C@@H]2O[C@H](CO)[C@@H](O)[C@H](O)[C@H]2O)cc1)c1ccc(O)cc1O` [Isoliquiritin, isoliquiritin]: the IC50 (on recombinant human MAO-A; at recombinant human MAO-B [1]; in [2]; on BChE from equine serum [3]) was greater than 40 µM throughout. Moreover, the remaining activity at 10 µM was determined as 81.8 ± 1.61% on recombinant human MAO-A, 75.4 ± 2.27% at recombinant human MAO-B [1], 69.9 ± 2.2% in test [2] and 91.9 ± 7.16% on BChE from equine serum [3].

Regarding `O=C1C[C@@H](c2ccc(O)cc2)Oc2cc(O)ccc21` [LG, Liquiritigenin], the results for the IC50 (at recombinant human MAO-A; in test [2]; against BChE from equine serum [3]) were 0.27 ± 0.041 µM, greater than 40 µM and greater than 40 µM, respectively. Also, the remaining activity at 10 µM at recombinant human MAO-A was found to be 0.46 ± 1.6%; at recombinant human MAO-B [1] it was 0%; in test [2], 95.3 ± 3.59%; at BChE from equine serum [3], 82.5 ± 0.26%. Also, the “mode of MAO-B inhibition” value at recombinant human MAO-B [1] (Lineweaver-Burk plots) is reported as “reversible competitive inhibitor”. Also, the “reversibility of MAO-B inhibition” value at recombinant human MAO-B [6] is listed as “reversibly inhibited”.

Consider `O=C1C[C@@H](c2ccc(O[C@@H]3O[C@H](CO)[C@@H](O)[C@H](O)[C@H]3O)cc2)Oc2cc(O)ccc21` [Liquiritin, liquiritin], for which the IC50 (on recombinant human MAO-A; at recombinant human MAO-B [1]; in [2]; against BChE from equine serum [3]) was greater than 40 µM throughout. For the same compound, the remaining activity at 10 µM at recombinant human MAO-A is 93.5%; at recombinant human MAO-B [1], 90.2 ± 0.56%; in test [2] it was 93.5 ± 5.12%; on BChE from equine serum [3], 95.5 ± 4.67%.

As for `COc1ccc(-c2cc(=O)c3c(O)cc(O)cc3o2)cc1` [acacetin], the IC50 in the test with MAO-B was 0.17 µM.

As for `COc1cc2c(cc1O)C[C@H]1c3c(cc(O)c(OC)c3-2)CCN1C` [boldine], the IC50 with BChE is 321 µM.

`COc1ccc(CCCc2ccc(O)cc2)c(O)c1` [broussonin A]: the IC50 in the test on BChE is 7.5 µM.

For `COc1ccc([C@@H]2CC(=O)c3c(O)cc(O[C@@H]4O[C@H](CO[C@@H]5O[C@@H](C)[C@H](O)[C@@H](O)[C@H]5O)[C@@H](O)[C@H](O)[C@H]4O)cc3O2)cc1O` [hesperidin], the IC50 with AChE was 0.00345 µM.

Consider `CC(C)=CCC[C@]1(C)[C@@H](CC=C(C)C)C[C@@]2(CC=C(C)C)C(=O)[C@]1(C(=O)C(C)C)C(=O)C(CC=C(C)C)=C2O` [hyperforin], for which, in the test with BChE, the IC50 is 142 µM.

As for `Cc1cc2c(cc(=O)c1O)[C@@]1(CO)CCCC(C)(C)[C@@H]1CC2` [isograndifoliol], in the test with BChE, the IC50 was 0.9 µM.

`CCC(C)C(=O)c1c(O)c2c(c3c(-c4ccccc4)cc(=O)oc13)OC(C)(CCC=C(C)C)C=C2` (stereo not shown) [mesuagenin B]: the IC50 in the test on AChE (from Mesua elegans) is 0.7 µM.

On to `CC(C)=CCc1c(O)ccc2ccc(=O)oc12` [osthenol], for which the IC50 with AChE (from Angelica pubescens) was 25.3 µM.

With `COc1c(OC)c2occc2c2oc(=O)ccc12` [pimpinellin], the BChE inhibition with BChE is on record as 78.02%.

For the compound `COc1cc2ccc(=O)oc2cc1O` [scopoletin], the IC50 in the test on BChE is 9.11 µM.

Consider `COc1cc2ccc(=O)oc2c2ccoc12` [sphondin], for which, in the test on BChE, the BChE inhibition is given as 63.69%.

For `COc1c2occc2cc2ccc(=O)oc12` [xanthotoxin], the IC50 in the test on AChE (from Ferula lutea) is 0.76 µM.

Regarding cremaphenanthrene F, the IC50 in the test with BChE is 14.6 µM.

Take hyuganin C: the IC50 with BChE was 38.9 µM.

With isoliquiritin apioside, the “Residual Activity at 10 µM (%) MAO-A” value on recombinant human MAO-A (setting [7]) is 86.6 ± 3.27%. Moreover, the “Residual Activity at 10 µM (%) MAO-B” value on recombinant human MAO-B [1] (setting [7]) worked out at 80.3 ± 5.57%. Besides, the “Residual Activity at 10 µM (%) AChE” value in [2] is listed as 93.5 ± 3.07%. Besides, the “Residual Activity at 10 µM (%) BChE” value on BChE from equine serum [3] turned out to be 95.6 ± 0.88%.

With liquiritin apioside, the “Residual Activity at 10 µM (%) MAO-A” value at recombinant human MAO-A (setting [7]) is on record as 86.9 ± 2.41%. Also, on recombinant human MAO-B [1] (setting [7]), the “Residual Activity at 10 µM (%) MAO-B” value was found to be 94.8 ± 0.57%. For the same compound, the “Residual Activity at 10 µM (%) AChE” value in test [2] was found to be 63.5 ± 2.56%. The “Residual Activity at 10 µM (%) BChE” value at BChE from equine serum [3] is recorded as 97.6 ± 0.93%.

Turning to sagachromanol I, in the test with BChE, the IC50 is 10.8 µM.

On to tannic acid, for which the IC50 in the test with AChE is 0.087 µM.
